Measured values from patent publication US10159249B2 (BAYER CROPSCIENCE AKTIENGESELLSCHAFT, priority 2013, dated 2018).
Like-named read-outs stand apart in the source and are kept apart here.

Experiments:
FMP37 (SEQ ID No 9) = FMP37 (SEQ ID No 9) (Blepharisma japonicum, UniProt A8R3H6); assay: HPPD activity in presence of inhibitor, HGD assay; format: biochemical
Method: (§1) With the HGD assay HPPD activity was measured at room temperature by adding appropriate amounts of HPPD to a solution of 200 mM Tris-HCl pH 7.6, 10 mM ascorbate, 20 μM FeSO4, 650 units of catalase, 8 μg HGA dioxygenase (HGA: homogentisate) and 600 μM HPP in a total volume of 1 ml. Initial reaction rates were determined from the increase in absorbance at 318 nm due to the formation of maleylacetoacetate (ε318=11,900 M-1 cm-1).
(§2) In cases, the symbol “>” is used this means that the value was far higher than the one indicated but could not be precisely calculated within in the range of concentration of inhibitor tested.
(§3) In the 1st column of Table 1, the HPPD employed in the assay is named and in the 2nd column of Table 1, the corresponding SEQ ID No of present invention is disclosed.

FMP27 (SEQ ID No 17) = FMP27 (SEQ ID No 17) (Kordia algicida, UniProt A9DQF2); assay: HPPD activity in presence of inhibitor, HGD assay; format: biochemical
Method: as §1, §2, §3

[1] = system: transgenic soybean T1 plants expressing PfHPPD-Evo40; format: in vivo; details: for number of events, herbicide tolerance class 0 (41%-100% damaged leaf area) / number of events, herbicide tolerance class 1 (16%-40% damaged leaf area) / number of events, herbicide tolerance class 2 (6%-15% damaged leaf area) / number of events, herbicide tolerance class 3 (0%-5% damaged leaf area): soybean PfHPPD-Evo40, scored after 21 days
[2] = target: PfHPPD-Evo33 (SEQ ID No 25) (Pseudomonas sp., UniProt P80064, A172V/A53E/D148E/D45N/E105D/E287Q/E300V/E334P/F143Y/G286D/G335W/H150N/H254A/H63N/I158V/I187A/I249V/K92N/L18F/N24G/N280D/S245T/S257K/S301E/T205S/V65I); assay: biochemical; design: species or system Pseudomonas fluorescens
[3] = system: maize transgenic T0 events expressing Axmi309H-Evo41; format: in vivo; details: 100 g AI/ha, six days after application
Method: (§4) Regenerated T0 events from tissue culture were transplanted into two inch square pots with synthetic soil (Fafard® Mix) and controlled-released fertilizer (Haifa Multicote™; polymer-coated controlled-release fertilizer, NPK Pro 18-6-12+Micronutrients) and cultivated in the greenhouse (GH) under supplementary high pressure sodium light for 12 days at a maximum of 30° C. during the day and a minimum of 22° C. at night. Fully recovered plants were transferred into five inch square pots filled with synthetic soil and control released fertilizer under the same environmental conditions. […] All herbicide treatments were conducted in a DeVries Tracker Sprayer system with standard application protocols, which are well known in the art.
A rating of “1” was assigned to plants having a moderate tolerance with 16% to 40% damage of total leaf area. A rating of “2” was assigned to plants with good tolerance within the range of 6% to 15% damage of total leaf area.

FMP22 (SEQ ID No 11) = FMP22 (SEQ ID No 11) (Rhodococcus jostii, UniProt A0ABU4CPN1); assay: HPPD activity in presence of inhibitor, HGD assay; format: biochemical, Rhodococcus sp. (strain RHA1), isolate ro03041; details: 0.2 μM inhibitor
Method: as §1, §2, §3

Axmi309H (SEQ ID No 35) = assay: HPPD activity in presence of inhibitor, HGD assay; format: biochemical, Pseudomonas agarici
Method: as §1, §2, §3

[4] = system: Axmi309H-Evo41 (SEQ ID No 37); assay: HPPD activity in presence of inhibitor, HGD assay; format: biochemical, Pseudomonas agarici
Method: as §1, §2, §3

wild type soybean Thorne = format: in vivo; details: scored after 21 days
[5] = system: Non-transformed maize plants; assay: Greenhouse trial, maize plants, leaf damage; format: in vivo; details: 25 g AI/ha
Method: as §4, with “art. As a spray control T0 events have been sprayed with the adjunvant mixture lacking the herbicide.” for “art.”

[6] = system: transgenic soybean T1 plants expressing PfHPPD-Evo41; format: in vivo; details: for number of events, herbicide tolerance class 0 (41%-100% damaged leaf area) / number of events, herbicide tolerance class 1 (16%-40% damaged leaf area) / number of events, herbicide tolerance class 2 (6%-15% damaged leaf area) / number of events, herbicide tolerance class 3 (0%-5% damaged leaf area): soybean PfHPPD-Evo41, scored after 21 days
Axmi428H (SEQ ID No 31) = Axmi428H (SEQ ID No 31) (Comamonas testosteroni, UniProt A0A8B4SBH1); assay: HPPD activity in presence of inhibitor, HGD assay; format: biochemical, Pseudomonas (=Comamonas) testosteroni; details: 0.2 μM inhibitor
Method: as §1, §2, §3

PfHPPD336W (SEQ ID No 4) = PfHPPD336W (SEQ ID No 4) (Pseudomonas sp., UniProt P80064, G335W); assay: biochemical; design: species or system Pseudomonas fluorescens
[7] = room temperature, 600 μM HPP, molar concentration
[8] = soybean Thorne (wt), 6.25 g AI/ha

CSc1c(C(F)(F)F)ccc(C(=O)Nc2nnnn2C)c1Cl
IC50 (FMP37 (SEQ ID No 9)): 5010 nM
inhibition at 0.2 µM (FMP37 (SEQ ID No 9); 0.2 μM inhibitor, HGD assay): 0%
IC50 (FMP27 (SEQ ID No 17)): 316 nM
inhibition at 0.2 µM (FMP27 (SEQ ID No 17); 0.2 μM inhibitor, HGD assay): 29%
herbicide tolerance ([1]; most soybean T1 plants expressing PfHPPD-Evo40, 25 g AI/ha): high tolerance
number of events, herbicide tolerance class 0 (41%-100% damaged leaf area) ([1]; 6.25 g AI/ha): 0
number of events, herbicide tolerance class 1 (16%-40% damaged leaf area) ([1]; 6.25 g AI/ha): 0
number of events, herbicide tolerance class 2 (6%-15% damaged leaf area) ([1]; 6.25 g AI/ha): 0
number of events, herbicide tolerance class 3 (0%-5% damaged leaf area) ([1]; 6.25 g AI/ha): 4
number of events, herbicide tolerance class 0 (41%-100% damaged leaf area) ([1]; 25 g AI/ha): 2
number of events, herbicide tolerance class 1 (16%-40% damaged leaf area) ([1]; 25 g AI/ha): 7
number of events, herbicide tolerance class 2 (6%-15% damaged leaf area) ([1]; 25 g AI/ha): 1
number of events, herbicide tolerance class 3 (0%-5% damaged leaf area) ([1]; 25 g AI/ha): 6
number of events, herbicide tolerance class 0 (41%-100% damaged leaf area) ([1]; 50 g AI/ha): 0
number of events, herbicide tolerance class 1 (16%-40% damaged leaf area) ([1]; 50 g AI/ha): 4
number of events, herbicide tolerance class 2 (6%-15% damaged leaf area) ([1]; 50 g AI/ha): 0
number of events, herbicide tolerance class 3 (0%-5% damaged leaf area) ([1]; 50 g AI/ha): 0
number of events, herbicide tolerance class 0 (41%-100% damaged leaf area) ([1]; 75 g AI/ha): 0
number of events, herbicide tolerance class 1 (16%-40% damaged leaf area) ([1]; 75 g AI/ha): 4
number of events, herbicide tolerance class 2 (6%-15% damaged leaf area) ([1]; 75 g AI/ha): 0
number of events, herbicide tolerance class 3 (0%-5% damaged leaf area) ([1]; 75 g AI/ha): 0
IC50 [2]: 251 nM
% inhibition at 0.2 μM ([2]; 0.2 μM inhibitor, HGD assay): 39%
number of events, herbicide tolerance class 0 (41%-100% damaged leaf area) [3]: 5
number of events, herbicide tolerance class 1 (16%-40% damaged leaf area) [3]: 9
number of events, herbicide tolerance class 2 (6%-15% damaged leaf area) [3]: 16
number of events, herbicide tolerance class 3 (0%-5% damaged leaf area) [3]: 6
inhibition at 0.2 µM (FMP22 (SEQ ID No 11)): 0%
% inhibition at 0.2 μM (Axmi309H (SEQ ID No 35); 0.2 μM inhibitor): 78%
pI50 (Axmi309H (SEQ ID No 35); [7]): 7.1
% inhibition at 0.2 μM ([4]; 0.2 μM inhibitor): 26%
pI50 [4, 7]: 6.5
number of events, herbicide tolerance class 0 (41%-100% damaged leaf area) (wild type soybean Thorne; [8]): 4
number of events, herbicide tolerance class 1 (16%-40% damaged leaf area) (wild type soybean Thorne; [8]): 0
number of events, herbicide tolerance class 2 (6%-15% damaged leaf area) (wild type soybean Thorne; [8]): 0
number of events, herbicide tolerance class 3 (0%-5% damaged leaf area) (wild type soybean Thorne; [8]): 0
number of events, herbicide tolerance class 0 (41%-100% damaged leaf area) (wild type soybean Thorne; soybean Thorne, 25 g AI/ha): 4
number of events, herbicide tolerance class 1 (16%-40% damaged leaf area) (wild type soybean Thorne; soybean Thorne, 25 g AI/ha): 0
number of events, herbicide tolerance class 2 (6%-15% damaged leaf area) (wild type soybean Thorne; soybean Thorne, 25 g AI/ha): 0
number of events, herbicide tolerance class 3 (0%-5% damaged leaf area) (wild type soybean Thorne; soybean Thorne, 25 g AI/ha): 0
leaf damage [5]: 100%
herbicide tolerance ([6]; most soybean T1 plants expressing PfHPPD-Evo41, 25 g AI/ha): high tolerance
damaged leaf area ([6]; several soybean T1 plants expressing PfHPPD-Evo41, 50 g AI/ha): less than 5%
number of events, herbicide tolerance class 0 (41%-100% damaged leaf area) ([6]; 6.25 g AI/ha): 0
number of events, herbicide tolerance class 1 (16%-40% damaged leaf area) ([6]; 6.25 g AI/ha): 0
number of events, herbicide tolerance class 2 (6%-15% damaged leaf area) ([6]; 6.25 g AI/ha): 0
number of events, herbicide tolerance class 3 (0%-5% damaged leaf area) ([6]; 6.25 g AI/ha): 12
number of events, herbicide tolerance class 0 (41%-100% damaged leaf area) ([6]; 25 g AI/ha): 2
number of events, herbicide tolerance class 1 (16%-40% damaged leaf area) ([6]; 25 g AI/ha): 8
number of events, herbicide tolerance class 2 (6%-15% damaged leaf area) ([6]; 25 g AI/ha): 1
number of events, herbicide tolerance class 3 (0%-5% damaged leaf area) ([6]; 25 g AI/ha): 21
number of events, herbicide tolerance class 0 (41%-100% damaged leaf area) ([6]; 50 g AI/ha): 0
number of events, herbicide tolerance class 1 (16%-40% damaged leaf area) ([6]; 50 g AI/ha): 1
number of events, herbicide tolerance class 2 (6%-15% damaged leaf area) ([6]; 50 g AI/ha): 0
number of events, herbicide tolerance class 3 (0%-5% damaged leaf area) ([6]; 50 g AI/ha): 3
number of events, herbicide tolerance class 0 (41%-100% damaged leaf area) ([6]; 75 g AI/ha): 0
number of events, herbicide tolerance class 1 (16%-40% damaged leaf area) ([6]; 75 g AI/ha): 4
number of events, herbicide tolerance class 2 (6%-15% damaged leaf area) ([6]; 75 g AI/ha): 0
number of events, herbicide tolerance class 3 (0%-5% damaged leaf area) ([6]; 75 g AI/ha): 0
inhibition at 0.2 µM (Axmi428H (SEQ ID No 31)): 71%
IC50 (PfHPPD336W (SEQ ID No 4)): 200 nM
% inhibition at 0.2 μM (PfHPPD336W (SEQ ID No 4); 0.2 μM inhibitor, HGD assay): 76%
